# In US20170307610A1, “COMPOUNDS THAT BIND DYSTROGLYCAN AND USES THEREOF” (OREGON HEALTH & SCIENCE UNIVERSITY, priority 2014, published 2017):
# Peptide text beside a SMILES is read from it. * marks the point of attachment. Cbz = O=C(OCc1ccccc1)*
# Tests used:
# Assay type in all cases: cell-based, mouse
# E3D1 MECs [1] = experiment: Steady-state laminin internalization, flow cytometry; conditions: 18 hrs; for MFI of steady-state laminin endocytosis in presence of MMP inhibitor: GM6001 50 μM (vehicle 20.2±1.82, n=4), BB2416 5 μM (vehicle 20.85, n=2); for effect of MMP inhibitor on steady-state laminin endocytosis: GM6001 50 μM, BB2416 5 μM
# Procedure: Endocytic internalization of laminin was confirmed by multiple methods. Laminin was labeled with the pH-sensitive fluorescent label CypHer-5 (CyPher-Ln) to exclusively image internalized laminin in attached, living cells. The fluorophore CypHer-5 is non fluorescent at pH 7.4 and maximally fluorescent at pH 5.5, permitting fluorescence detection of laminin within intracellular acidic vesicles (pH 4.8-6.0). Following overnight incubation of MECs with CypHer-Ln, live cell imaging detected bright fluorescent vesicles moving rapidly within the cytoplasm (FIG. 3A). Intracellular laminin within the cytoplasm was also independently observed via removal of surface bound laminin followed by confocal imaging. MECs were exposed to 10 μg/ml Rhod-Ln for 18 hrs, trypsinized, washed with PBS/EDTA to remove surface-bound laminin, allowed to re-attach, and stained with the membrane marker FITC-concanavalin A (conA). […] This method of cell treatment permitted a quantitative, flow cytometry-based assay of laminin internalization. In this assay, cells incubated with Rhod-Ln were trypsinized, washed (as in FIG. 3B), and the remaining internal Rhod-Ln fluorescence quantified by flow cytometry. Using this assay, laminin internalization was confirmed in diverse cell types including in primary mammary epithelial cultures, mammary epithelial cell lines (E3D1, MEpG), […] fibroblasts (NIH 3T3 cells), primary astrocytes, and human cancer cell lines (breast and glioma).
# (§1) To explore the dynamics of laminin internalization, steady-state time course experiments (measuring internalization in the continuous presence of labeled laminin) and pulsed time course experiments were performed. In pulsed time course experiments, the cells were exposed to exogenous Rhod-Ln at 4° C. to prevent internalization, excess unbound Rhod-Ln was washed away, and then cells were returned to 37° C. to allow synchronized internalization and trafficking to proceed. […] Following pulsed and synchronized laminin exposure, Rhod-Ln was again observed to internalize within 1 hour, but reached a maximum at 8 hours, after which the levels of internal laminin declined (FIG. 4A). After 24 hours, internal Rhod-Ln levels declined to ˜37% of the maxima, indicating degradation (MFI: 315±3.5 to 119±11.5). To determine if laminin was degraded using classical degradation pathways, pulsed time course experiments in the presence of leupeptin (lysosome inhibitor) or […] (proteasome inhibitor) were performed.
# Laminin internalization could be mediated by either receptor-dependent or receptor independent mechanisms (e.g. pinocytosis). Steady-state laminin internalization was measured using flow cytometry in the presence of potential inhibitors and compared to internalization of 500S FITC-dextran, a molecule of similar molecular size to laminin known to be endocytosed by receptor-independent mechanisms. The specific inhibitor of dynamin, dynasore (Macia E et al, Dev Cell, 839-850 (2006); incorporated by reference herein), inhibited internalization of laminin by >75% (FIG. 6A). Under hypertonic sucrose, a condition known to inhibit receptor-mediated endocytosis (Heuser J E and Anderson R G, J Cell Biol 108, 389-400 (1989); incorporated by reference herein) laminin internalization was reduced by 65% (FIG. 6A). Addition of heparin, a molecule known to bind the laminin LG4-5 domain (Harrison D et al, J Biol Chem 282, 11573-11581 (2007); incorporated by reference herein), decreased laminin internalization by 69% relative to controls (FIG. 6A). […] Specifically, under steady state, laminin internalization was nearly linear throughout the 24 hour time course, whereas dextran internalization plateaued after 16 hrs.
# Flow Cytometry—Cells were plated in 12 well plates at 200,000 cells/well. The following day, media was changed to serum-free media with or without 10 μg/ml rhodamine laminin or 40 μg/ml FITC-dextran (500S-Sigma-Aldrich Corp., St. Louis, Mo., USA). […]
# E3D1 MECs [2] = experiment: Pulsed time course of Rhod-Ln internalization, flow cytometry; conditions: pulsed, 24 hrs post laminin labeling, n=4; for MFI of internal Rhod-Ln in presence of inhibitor: vehicle 105.5±3
# Procedure: as §1
# Laminin labeling—Laminin-111 (1 mg) (Sigma-Aldrich Corp., St. Louis, Mo., USA) was dialyzed twice overnight against 500 ml of PBS with 10 μM CaCl2. The dialyzed laminin was then reacted with 10 μg NHS-rhodamine, or a 50 fold molar excess of NHS409 CypHer5 (GE) for 2 hr on ice, followed by dialysis twice overnight against 500 ml of PBS with 10 μM CaCl2.
# Flow Cytometry—Cells were plated in 12 well plates at 200,000 cells/well. The following day, media was changed to serum-free media with or without 10 μg/ml rhodamine laminin or 40 μg/ml FITC-dextran (500S-Sigma-Aldrich Corp., St. Louis, Mo., USA). Unless otherwise indicated, cells were incubated 18-24 hrs, washed once with PBS, and cells trypsinized. Cells were washed in 5 ml cold PBS/1 mM EDTA, pelleted, and resuspended in 1 ml PBS/1 mM EDTA. Using a BD FACScan flow cytometer (BD Biosciences, San Jose, Calif., USA), 10,000 cells/well were counted, background fluorescence from the cell counts with no added laminin subtracted and the mean fluorescence intensity values reported. Graphed data are compiled from duplicate wells from each experiment with a minimum of three separate experiments, unless indicated otherwise.
# E3D1 MECs [3] = experiment: FITC-dextran (500S) internalization, flow cytometry; conditions: steady state, 24 hour time course
# Procedure: Laminin internalization could be mediated by either receptor-dependent or receptor independent mechanisms (e.g. pinocytosis). Steady-state laminin internalization was measured using flow cytometry in the presence of potential inhibitors and compared to internalization of 500S FITC-dextran, a molecule of similar molecular size to laminin known to be endocytosed by receptor-independent mechanisms. The specific inhibitor of dynamin, dynasore (Macia E et al, Dev Cell, 839-850 (2006); incorporated by reference herein), inhibited internalization of laminin by >75% (FIG. 6A). Under hypertonic sucrose, a condition known to inhibit receptor-mediated endocytosis (Heuser J E and Anderson R G, J Cell Biol 108, 389-400 (1989); incorporated by reference herein) laminin internalization was reduced by 65% (FIG. 6A). Addition of heparin, a molecule known to bind the laminin LG4-5 domain (Harrison D et al, J Biol Chem 282, 11573-11581 (2007); incorporated by reference herein), decreased laminin internalization by 69% relative to controls (FIG. 6A). […]
# Flow Cytometry—Cells were plated in 12 well plates at 200,000 cells/well. […] Using a BD FACScan flow cytometer (BD Biosciences, San Jose, Calif., USA), 10,000 cells/well were counted, background fluorescence from the cell counts with no added laminin subtracted and the mean fluorescence intensity values reported. […]
# [4] = Mus musculus, steady-state, 10 μg/ml Rhod-Ln, 40 μM dynasore, 320 mM sucrose, 100 μg/ml heparin
compound,measurement,setting,value
CNC(=O)[C@@H](NC(=O)[C@H](CC(C)C)[C@H](O)C(=O)NO)C(C)(C)C [BB2416],MFI of steady-state laminin endocytosis in presence of MMP inhibitor,E3D1 MECs [1],20.46
same,effect of MMP inhibitor on steady-state laminin endocytosis,E3D1 MECs [1],no significant effect
CNC(=O)[C@H](Cc1c[nH]c2ccccc12)NC(=O)[C@@H](CC(=O)NO)CC(C)C [GM6001],MFI of steady-state laminin endocytosis in presence of MMP inhibitor,E3D1 MECs [1],18.62±1
same,effect of MMP inhibitor on steady-state laminin endocytosis,E3D1 MECs [1],no significant effect
CC(C)C[C@@H](C=O)NC(=O)[C@H](CC(C)C)NC(=O)[C@H](CC(C)C)NC(=O)OCc1ccccc1 [MG-231] (Cbz-Leu-Leu-Leu-aldehyde),increase in internal Rhod-Ln compared to vehicle controls,E3D1 MECs [2],59%
same,MFI of internal Rhod-Ln in presence of inhibitor,E3D1 MECs [2],167.5±7
O=C(N/N=C/c1ccc(O)c(O)c1)c1cc2ccccc2cc1O [dynasore],inhibition at 40 µM,E3D1 MECs [1]; [4],> 75%
CC(=O)N[C@@H](CC(C)C)C(=O)N[C@@H](CC(C)C)C(=O)N[C@H](C=O)CCCNC(=N)N [leupeptin],increase in internal Rhod-Ln compared to vehicle controls,E3D1 MECs [2],153%
same,MFI of internal Rhod-Ln in presence of inhibitor,E3D1 MECs [2],266±11.2
OC[C@H]1O[C@@](CO)(O[C@H]2O[C@H](CO)[C@@H](O)[C@H](O)[C@H]2O)[C@@H](O)[C@@H]1O [sucrose],inhibition at 320000 µM,E3D1 MECs [1]; [4],65%
FITC-dextran,time to plateau of dextran internalization,E3D1 MECs [3],> 16 h
heparin,inhibition of laminin internalization,"E3D1 MECs [1]; steady-state, 10 μg/ml Rhod-Ln, 40 μM dynasore, 320 mM sucrose, 100 μg/ml heparin",69%
